Measured values from PubChem BioAssay (NCI).
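Test compounds were applied to cells in 96-well plates for 48 hours at 5 doses. GI50: concentration for 50% inhibition of growth. TGI is the concentration that stops growth completely.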

Experiments:
Test in all cases: growth of human tumour cells (NCI), 48 h
[1] = system: A498 renal
[2] = system: HCT-15 colon
[3] = system: IGROV1 ovarian
[4] = system: KM12 colon
[5] = system: MOLT-4 leukemia
[6] = system: NCI-H522 lung
[7] = system: OVCAR-4 ovarian
[8] = system: SK-MEL-5 melanoma
[9] = system: SNB-19 CNS
[10] = system: TK-10 renal

SMILES | GI50 [1] | TGI [1] | GI50 [2] | TGI [2] | GI50 [3] | TGI [3] | GI50 [4] | TGI [4] | GI50 [5] | TGI [5] | GI50 [6] | TGI [6] | GI50 [7] | TGI [7] | GI50 [8] | TGI [8] | GI50 [9] | TGI [9] | GI50 [10] | TGI [10]
CCC(CO)Nc1nc2ccc(Cl)cc2c2ccccc12 (configuration not stated) | 4.6 µM | 16 µM | 3.7 µM | 15.4 µM | 11.2 µM | 23.5 µM | 5.3 µM | 17.1 µM | 3.55 µM | 15.2 µM | 8.42 µM | 21.5 µM | 11.9 µM | 25.5 µM | 11.2 µM | 23.3 µM | 8.53 µM | 21.3 µM | 3.91 µM | 18 µM
N#CC(c1ccc(Cl)cc1)c1cccc(C(C#N)c2ccc(Cl)cc2)n1 (configuration not stated) |  | 10.9 µM |  |  |  |  |  | > 100 µM |  | > 100 µM |  | > 100 µM |  | > 100 µM |  |  |  | > 100 µM |  | 69.9 µM
O=C1C(=O)N(c2ccc(Cl)cc2Cl)C(=O)C(=O)C1c1nc2ccccc2s1 |  | > 100 µM |  | > 100 µM |  | > 100 µM |  | > 100 µM |  | > 89.2 µM |  | > 57.2 µM |  | > 100 µM |  | > 100 µM |  | > 100 µM |  | > 100 µM
COc1ccc2c(c1)/C(=C/c1c(C)nc3sc(C)nn13)C(=O)N2 | 3.07 µM | > 50 µM | 0.879 µM | > 100 µM | 2.18 µM | > 100 µM | 0.42 µM | > 54.6 µM | 2.64 µM | > 100 µM | 0.574 µM | 5.93 µM | 14.7 µM | > 100 µM | 1.5 µM | > 100 µM | 1.94 µM | > 37 µM | 7.43 µM | > 100 µM
CSc1nc2c(c(=O)[nH]1)N=C1c3ccccc3C(=O)C1C(c1ccccc1)N2 (configuration not stated) | 2 µM | 38 µM | 2.8 µM | > 100 µM | 4.54 µM | > 100 µM | 2.27 µM | 37.5 µM | 5.24 µM | > 100 µM | 1.41 µM | 30.4 µM | 5.62 µM | > 100 µM | 1.5 µM | 67.2 µM | > 100 µM | > 100 µM | 73.6 µM | > 100 µM
CN(C)CC[N+]1=Nc2cccc3cccc(c23)N1 |  | > 100 µM |  | > 100 µM |  | > 100 µM |  | > 100 µM |  | > 73.2 µM |  | > 95.7 µM |  | > 100 µM |  | > 100 µM |  | > 100 µM |  | > 100 µM
Nc1ccccc1SC(C[N+](=O)[O-])c1ccc2c(c1)OCO2 (configuration not stated) |  | 20.6 µM |  | 10.3 µM |  | 3.2 µM |  | 6.31 µM |  | 6.66 µM |  | 28.3 µM |  | 23.8 µM |  | 15.3 µM |  | 24.3 µM |  | 7.09 µM
COC1CCC2C(NS(=O)(=O)c3ccc(C)cc3)CCCC2O1 (configuration not stated) (tested in a mixture with another compound) |  | > 34.5 µM |  | > 34.5 µM |  | > 34.5 µM |  | > 34.5 µM |  | 20.9 µM |  | 31.5 µM |  | > 34.5 µM |  | 19.4 µM |  | > 34.5 µM |  | > 34.5 µM
CCCCCCCCCCCCCCCCCC(CCCCCCCCCCCCCCCCC)OP(=O)(O)O |  | > 100 µM |  | > 100 µM |  | > 100 µM |  | > 100 µM |  | > 100 µM |  | > 100 µM |  | > 100 µM |  | > 100 µM |  | > 100 µM |  | > 100 µM
O=C(CC1(O)C(=O)Nc2c(Cl)cc(Cl)cc21)c1ccc(Br)cc1Br (configuration not stated) |  | 40 µM |  | 22.2 µM |  | 34.7 µM |  | 27.9 µM |  | 17.3 µM |  | 8.05 µM |  | 29.5 µM |  | 14.6 µM |  | 41 µM |  | 32 µM
Cc1ccc(C(=O)/C(=C/c2ccc([N+](=O)[O-])cc2)SCc2ccc(Cl)cc2)cc1 | 24 µM | > 100 µM | 0.565 µM | 2.69 µM | 2.23 µM | 8.6 µM | 1.91 µM | 5.73 µM | 0.471 µM | > 100 µM | 1.64 µM | 3.54 µM | 1.87 µM | 6.37 µM | 2.34 µM | 6.43 µM | 1.17 µM | 3.02 µM | 4.95 µM | 30.7 µM
NC(=O)c1cccc2cn(-c3ccc([C@@H]4CCCNC4)cc3)nc12 | 19.2 µM | 40.8 µM | 14.8 µM | 45.5 µM | 15.3 µM | 52.3 µM | 15.7 µM | 30.6 µM | 6.99 µM | 30.1 µM | 20.4 µM | 55.6 µM | 16.6 µM | 41.5 µM | 13.8 µM | 27 µM | 17.1 µM | > 92.7 µM | 24.1 µM | 63.2 µM
